Several values for one entry are separate records, joined by “and”; a condition that tells them apart may be missing. Equal entries are not always repeated. Entries after “also recorded” stand apart in the source; their conditions may differ. Where two headings read alike, the source gives them in different places.
Tests used:
Sas20d1 = Sas20d1 (Ruminococcus bromii, UniProt Z9RYL2BLZ4); assay: ITC binding to Sas20d1; conditions: average of three replicates; for Kd (μM) / Kd: 25 °C, 50 mM Hepes pH 7.0, one-site binding model, polysaccharides: based on concentration of binding sites; for N (binding sites): one-site binding model
Sequence of Sas20d1 (Z9RYL2BLZ4 14-251 limits assumed): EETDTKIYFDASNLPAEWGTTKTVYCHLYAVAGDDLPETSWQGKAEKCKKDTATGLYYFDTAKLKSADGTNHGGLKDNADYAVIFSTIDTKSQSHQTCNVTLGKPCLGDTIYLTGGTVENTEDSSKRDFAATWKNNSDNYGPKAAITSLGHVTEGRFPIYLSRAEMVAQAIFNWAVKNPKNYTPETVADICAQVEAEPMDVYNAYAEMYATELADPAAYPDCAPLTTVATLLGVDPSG
Procedure: (§1) ITC measurements were carried out using a TA Instruments Nano ITC. Proteins were dialyzed into 50 mM Hepes (pH = 7.0), and oligosaccharides were prepared using the dialysis buffer. […] For polysaccharide titrations, the concentration of ligand was adjusted to fit a one-site binding model with n = 1; this sets the concentration of the ligand to the concentration of binding sites for the protein within the polysaccharide, as previously described ([77]). The solution was stirred at 250 rpm, and the resulting heat of reaction was measured. Data were analyzed using the TA Instruments NanoAnalyze software package fitting to a one-site binding model.

Sas20d2 = Sas20d2 (Ruminococcus bromii, UniProt A0A2N0UW79); assay: ITC binding to Sas20d2; conditions: for N (binding sites): one-site binding model
Sequence of Sas20d2 (A0A2N0UW79 entry or part of it): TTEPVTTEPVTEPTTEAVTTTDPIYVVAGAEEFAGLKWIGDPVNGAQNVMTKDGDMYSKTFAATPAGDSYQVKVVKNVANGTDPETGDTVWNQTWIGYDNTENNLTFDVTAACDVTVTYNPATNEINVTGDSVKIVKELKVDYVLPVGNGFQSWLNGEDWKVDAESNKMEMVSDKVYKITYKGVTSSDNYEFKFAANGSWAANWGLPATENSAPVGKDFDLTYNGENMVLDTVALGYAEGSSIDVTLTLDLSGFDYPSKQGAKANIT
Procedure: as §1

Sca5X25-2 = Sca5X25-2 (Ruminococcus bromii, UniProt Z9P1N1M2Z2); assay: ITC binding to Sca5X25-2
Sequence of Sca5X25-2 (Z9P1N1M2Z2 14-256 limits assumed): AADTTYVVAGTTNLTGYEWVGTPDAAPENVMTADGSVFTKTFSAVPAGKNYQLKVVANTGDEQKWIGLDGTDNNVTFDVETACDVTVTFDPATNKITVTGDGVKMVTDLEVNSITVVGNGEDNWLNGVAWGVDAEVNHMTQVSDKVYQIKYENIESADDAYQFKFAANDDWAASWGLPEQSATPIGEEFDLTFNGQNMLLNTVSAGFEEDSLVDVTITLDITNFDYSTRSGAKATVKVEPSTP
Procedure: as §1

Sas20d1tr = Sas20d1tr (Ruminococcus bromii, UniProt Z9RYL2BLZ4); assay: ITC binding to truncated Sas20d1 lacking C-terminal helices
Sequence of Sas20d1tr (Z9RYL2BLZ4 14-173 limits assumed): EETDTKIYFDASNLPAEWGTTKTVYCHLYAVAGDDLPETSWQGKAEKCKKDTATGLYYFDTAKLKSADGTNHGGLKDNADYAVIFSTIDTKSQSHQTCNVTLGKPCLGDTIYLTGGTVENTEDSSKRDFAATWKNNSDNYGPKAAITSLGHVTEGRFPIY
Procedure: as §1

Sas20d1 Y60A = assay: ITC binding to Sas20d1 Y60A mutant; set-up: species or system Ruminococcus bromii; conditions: 25 °C, one-site binding model, average of three replicates
Sas20d1 W72A = assay: ITC binding to Sas20d1 W72A mutant; set-up: species or system Ruminococcus bromii; conditions: 25 °C, one-site binding model, average of three replicates
Sas20d2 W329A = assay: ITC binding to Sas20d2 W329A mutant; set-up: species or system Ruminococcus bromii
Sas20d2 W375A = assay: ITC binding to Sas20d2 W375A mutant; set-up: species or system Ruminococcus bromii
Sas20d2 W440A = assay: ITC binding to Sas20d2 W440A mutant; set-up: species or system Ruminococcus bromii
Sas20d2 W481A = assay: ITC binding to Sas20d2 W481A mutant; set-up: species or system Ruminococcus bromii; conditions: 25 °C, one-site binding model, average of three replicates
Sca5X25-2a = assay: ITC binding to Sca5X25-2a; conditions: 25 °C, one-site binding model, average of three replicates
Sequence of Sca5X25-2a (Z9P1N1M2Z2 13-117 limits assumed): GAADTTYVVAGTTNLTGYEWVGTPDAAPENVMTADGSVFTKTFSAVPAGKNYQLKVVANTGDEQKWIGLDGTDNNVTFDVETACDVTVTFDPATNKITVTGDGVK
Procedure: as §1

Sca5X25-2b = assay: ITC binding to Sca5X25-2b; conditions: 25 °C, one-site binding model, average of three replicates
Sequence of Sca5X25-2b (Z9P1N1M2Z2 118-256 limits assumed): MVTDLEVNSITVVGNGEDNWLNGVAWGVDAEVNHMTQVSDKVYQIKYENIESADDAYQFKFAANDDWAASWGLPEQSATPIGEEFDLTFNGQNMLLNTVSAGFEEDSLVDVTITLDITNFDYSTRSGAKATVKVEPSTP
Procedure: ITC measurements were carried out using a TA Instruments Nano ITC. Proteins were dialyzed into 50 mM Hepes (pH = 7.0), and oligosaccharides were prepared using the dialysis buffer. […] The solution was stirred at 250 rpm, and the resulting heat of reaction was measured. Data were analyzed using the TA Instruments NanoAnalyze software package fitting to a one-site binding model.

[1] = 25 °C, 50 mM Hepes pH 7.0, one-site binding model, average of three replicates, polysaccharides: based on concentration of binding sites
[2] = Kd (μM), 25 °C, one-site binding model, average of three replicates, asterisk denotes fixed Kd
[3] = 25 °C, one-site binding model, average of three replicates

Compound: OC[C@H]1O[C@@H]2O[C@H]3[C@H](O)[C@@H](O)[C@@H](O[C@H]4[C@H](O)[C@@H](O)[C@@H](O[C@H]5[C@H](O)[C@@H](O)[C@@H](O[C@H]6[C@H](O)[C@@H](O)[C@@H](O[C@H]7[C@H](O)[C@@H](O)[C@@H](O[C@H]8[C@H](O)[C@@H](O)[C@@H](O[C@H]1[C@H](O)[C@H]2O)O[C@@H]8CO)O[C@@H]7CO)O[C@@H]6CO)O[C@@H]5CO)O[C@@H]4CO)O[C@@H]3CO [β-Cyclodextrin, β-cyclodextrin]
- Kd (μM) (Sas20d1): failed to bind
- Kd (μM) (Sas20d2; [1]): weak binding
- N (binding sites) (Sas20d2): 0.98 ± 0.09
- Kd (Sca5X25-2): 346 ± 78.8 µM
- N (binding sites) (Sca5X25-2; ITC, one-site binding model): 0.958 ± 0.01
- Kd (Sas20d1tr; Kd): > 1000 µM
- Kd (Sas20d1tr; [2]): 1050 ± 168 µM

Compound: soluble starch
- Kd (Sas20d1): ≤ 20 µM
- Kd (Sas20d2; [1]): ≤ 20 µM

Compound: O=[N+]([O-])c1ccc(O[C@H]2O[C@H](CO)[C@@H](O[C@H]3O[C@H](CO)[C@@H](O[C@H]4O[C@H](CO)[C@@H](O[C@H]5O[C@H](CO)[C@@H](O[C@H]6O[C@H](CO)[C@@H](OC7OC(CO)C(O)C(O)C7O)[C@H](O)[C@H]6O)[C@H](O)[C@H]5O)[C@H](O)[C@H]4O)[C@H](O)[C@H]3O)[C@H](O)[C@H]2O)cc1 (stereo partly drawn) [PNP-M6, PNP-α-maltohexaose]
- Kd (Sas20d1): 0.87 ± 0.48 µM
- N (binding sites) (Sas20d1): 1.15 ± 0.07

Compound: OC[C@H]1O[C@H](O[C@H]2[C@H](O)[C@@H](O)[C@@H](O[C@H]3[C@H](O)[C@@H](O)[C@@H](O[C@H]4[C@H](O)[C@@H](O)[C@@H](O[C@H]5[C@H](O)[C@@H](O)[C@@H](O[C@H]6[C@H](O)[C@@H](O)[C@@H](O[C@H]7[C@H](O)[C@@H](O)C(O)O[C@@H]7CO)O[C@@H]6CO)O[C@@H]5CO)O[C@@H]4CO)O[C@@H]3CO)O[C@@H]2CO)[C@H](O)[C@@H](O)[C@@H]1O (some centres unmarked) [Maltoheptaose, maltoheptaose]
- Kd (Sas20d1 Y60A): 8.29 ± 0.51 µM
- Kd (μM) (Sas20d1 Y60A): binds
- Kd (μM) (Sas20d1 W72A): did not bind
- fold increase in the Kd compared with WT Sas20d2 (Sas20d2 W329A): ~100 fold
- Kd (Sas20d2 W329A; [3]): 90.8 ± 25.7 µM
- fold increase in the Kd compared with WT Sas20d2 (Sas20d2 W375A): ~100 fold
- Kd (Sas20d2 W375A; [3]): 88.1 ± 36 µM
- fold increase in the Kd compared with WT Sas20d2 (Sas20d2 W440A): ~100 fold
- Kd (Sas20d2 W440A; [3]): 90 ± 7.72 µM
- Kd (μM) (Sas20d2 W481A): eliminated binding
- Kd (Sas20d1; Kd (μM)): ≤ 20 µM and 1.5 µM and 1.53 µM
- N (binding sites) (Sas20d1): 0.89 ± 0.38
- fold lower Kd for maltoheptaose over maltotriose (Sas20d2): ~1500 ×
- N (binding sites) (Sas20d2): 1.15 ± 0.15
- Kd (Sca5X25-2): 0.21 ± 0.029 µM
- N (binding sites) (Sca5X25-2; ITC, one-site binding model): 0.81 ± 0.09
- Kd (μM) (Sca5X25-2a): failed to bind
- Kd (μM) (Sca5X25-2b): failed to bind
- fold decrease in binding versus full-length Sas20d1 (Sas20d1tr): ~100 fold
- Kd (Sas20d1tr; [2]): 155 ± 63 µM
- N (binding sites) (Sas20d1tr; one-site binding model): 1.45 ± 0.27

Compound: OC[C@H]1O[C@H](O[C@H]2[C@H](O)[C@@H](O)[C@@H](O[C@H]3[C@H](O)[C@@H](O)C(O)O[C@@H]3CO)O[C@@H]2CO)[C@H](O)[C@@H](O)[C@@H]1O (some centres unmarked) [Maltotriose, maltotriose]
- Kd (μM) (Sas20d1 W72A): did not bind
- Kd (μM) (Sas20d2 W329A; [3]): loss of binding
- Kd (μM) (Sas20d2 W375A; [3]): loss of binding
- Kd (μM) (Sas20d2 W440A; [3]): loss of binding
- Kd (μM) (Sas20d2 W481A): eliminated binding
- N (binding sites) (Sas20d2): 1.18 ± 0.05

Compound: OC[C@H]1O[C@@H]2O[C@H]3[C@H](O)[C@@H](O)[C@@H](O[C@H]4[C@H](O)[C@@H](O)[C@@H](O[C@H]5[C@H](O)[C@@H](O)[C@@H](O[C@H]6[C@H](O)[C@@H](O)[C@@H](O[C@H]7[C@H](O)[C@@H](O)[C@@H](O[C@H]1[C@H](O)[C@H]2O)O[C@@H]7CO)O[C@@H]6CO)O[C@@H]5CO)O[C@@H]4CO)O[C@@H]3CO [α-Cyclodextrin, α-cyclodextrin]
- Kd (μM) (Sas20d1): failed to bind
- Kd (μM) (Sas20d2; [1]): Neither Sas20d2 nor Sca5X25-2 bound; also recorded: failed to bind
- Kd (μM) (Sca5X25-2; ITC, 25 °C, one-site binding model, average of three replicates): Neither Sas20d2 nor Sca5X25-2 bound
- Kd (Sas20d1tr): > 1000 µM

Compound: O=[N+]([O-])c1ccc(OC2OC(CO)C(OC3OC(CO)C(OC4OC(CO)C(OC5OC(CO)C(OC6OC(CO)C(OC7OC(CO)C(OC8OC9COC(c%10ccccc%10)OC9C(O)C8O)C(O)C7O)C(O)C6O)C(O)C5O)C(O)C4O)C(O)C3O)C(O)C2O)cc1 (centres unmarked) [B-PNP-M7, benzylidene-blocked para-nitrophenyl maltoheptaoside]
- Kd (Sas20d1): 7.12 ± 1.53 µM
- N (binding sites) (Sas20d1): 1.28 ± 0.29
